As usually defined, the IC50 is the concentration that gives 50% inhibition.

For this assay, the target named is T1, P2X7 receptor (Homo sapiens, UniProt Q99572).
T1 construct: stably expressing the full length P2X7 receptor; expressed in transfected cells
T1 sequence (Q99572 1-595): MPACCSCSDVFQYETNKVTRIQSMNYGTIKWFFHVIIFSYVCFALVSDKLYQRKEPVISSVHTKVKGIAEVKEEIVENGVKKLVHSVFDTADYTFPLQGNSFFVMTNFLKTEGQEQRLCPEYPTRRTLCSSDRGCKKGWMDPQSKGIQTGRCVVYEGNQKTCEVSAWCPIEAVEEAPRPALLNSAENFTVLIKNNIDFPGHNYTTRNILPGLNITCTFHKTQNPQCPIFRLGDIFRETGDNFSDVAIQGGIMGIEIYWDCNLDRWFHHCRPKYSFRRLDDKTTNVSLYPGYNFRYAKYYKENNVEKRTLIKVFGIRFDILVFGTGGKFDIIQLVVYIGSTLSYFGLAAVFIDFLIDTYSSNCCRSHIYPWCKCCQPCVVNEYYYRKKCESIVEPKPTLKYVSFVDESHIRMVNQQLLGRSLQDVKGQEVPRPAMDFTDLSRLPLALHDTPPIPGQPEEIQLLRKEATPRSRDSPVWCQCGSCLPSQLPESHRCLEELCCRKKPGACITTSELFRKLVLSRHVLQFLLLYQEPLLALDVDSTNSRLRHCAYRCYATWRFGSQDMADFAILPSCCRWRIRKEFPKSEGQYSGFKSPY
The experiment in a line: Ca++ flux assay (FLIPR) in P2X7-HEK-293 cell line stably expressing the full length P2X7 receptor, Bz-ATP activation. The format is cell-based. Particulars: P2X7-HEK-293 cells; agonist Bz-ATP; fluorescence as total area over 90 seconds; read-out: P2X7 Ca Flux hu IC50. The protocol:
The ability of Triazolopyrazinone Compounds to inhibit P2X7 function can be determined in Ca^++ flux assay using a P2X7-HEK-293 cell line stably expressing the full length P2X7 receptor. The assay protocol is as described in Cheewatrakoolpong et al., Biochem. Biophys. Res. Commun. 332:17-27 (2005) with minor modification, and is as summarized hereinafter. Briefly, cells were plated in poly-D-lysine-coated wells, and incubated at 37° C. for 24 hours. Cells were then incubated for 1 hour with a loading buffer which contains a dye sensitive to changes in Ca^++ concentration (lx Calcium Plus no wash dye from Molecular Devices, Sunnyvale, Calif.). The test compounds were added to the wells in the dye loading step. Plates containing the wells were transferred to a Fluorometric Imaging Plate Reader (Molecular Devices, Sunnyvale, Calif.). The cells were activated by the addition of the P2X7 receptor agonist 2′(3) —O-(4-benzoylbenzoyl)adenosine 5′-triphosphate (Bz-ATP from Sigma-Aldrich, St. Louis, Mo.), and the fluorescence was monitored for 90 seconds. The fluorescent signal was determined as the total area over the 90 second run time. Using this protocol, representative Triazolopyrazinone Compounds, compounds 1471 were tested. Tables 3 to 6 show the concentration at which 50% of the maximum response in the Ca^++ was inhibited (IC50) for each of the test compounds.
As for `Cc1c(-n2ccn3c(S(=O)(=O)Cc4ccccc4-c4ccc(Cl)cc4)nnc3c2=O)cccc1C(F)(F)F` [Compound 118, 3-((4′-chlorobiphenyl-2-yl)methylsulfonyl)-7-(2-methyl-3-(trifluoromethyl)phenyl)-[1,2,4]triazolo[4,3-a]pyrazin-8(7H)-one], the IC50 worked out at 6.9 nM. Next, `Cc1c(Cl)cccc1-n1ccn2c(SCc3cc(Cl)cc(C(F)(F)F)c3)nnc2c1=O` [Compound 78, 7-(3-chloro-2-methylphenyl)-3-(3-chloro-5-(trifluoromethyl)benzylthio)-[1,2,4]triazolo[4,3-a]pyrazin-8(7H)-one]: 597 nM; `Cc1c(-n2ccn3c(SCc4ccccc4OC(F)(F)F)nnc3c2=O)cccc1C(F)(F)F` [Compound 51, 7-(2-methyl-3-(trifluorornethyl)phenyl)-3-(2-(trifluoromethoxy)benzylthio)-[1,2,4]triazolo[4,3-a]pyrazin-8(7H)-one]: 44.2 nM. Next, `Cc1c(Cl)cccc1-n1ccn2c(SCc3ccccc3I)nnc2c1=O` [Compound 74, 7-(3-chloro-2-methylphenyl)-3-(2-iodobenzylthio)-[1,2,4]triazolo[4,3-a]pyrazin-8(7H)-one]: 264 nM. For the molecule `Cc1ccc(-c2ccccc2CSc2nnc3c(=O)n(-c4cccc(C(F)(F)F)c4C)ccn23)s1` [Compound 6, 7-(2-methyl-3-(trifluoromethyl)phenyl)-3-(2-(5-methylthiophen-2-yl)benzylthio)-[1,2,4]triazolo[4,3-a]pyrazin-8(7H)-one], the IC50 turned out to be 37 nM.

For the molecule `Cc1c(Cl)cccc1-n1ccn2c(SCc3ccc4ccccc4c3)nnc2c1=O` [Compound 97, 7-(3-chloro-2-methylphenyl)-3-(naphthalen-2-ylmethylthio)-[1,2,4]triazolo[4,3-a]pyrazin-8(7H)-one], the IC50 is 2310 nM. Next, `Cc1c(Cl)cccc1-n1ccn2c(SCc3ccccc3B(O)O)nnc2c1=O` [Compound 24, 2-((7-(3-chloro-2-methylphenyl)-8-oxo-7,8-dihydro-[1,2,4]triazolo[4,3-a]pyrazin-3-ylthio)rnethyl)phenylboronic acid]: 1010 nM; `Cc1c(-n2ccn3c(SCc4ccccc4-c4ccc(C(F)(F)F)cc4)nnc3c2=O)cccc1C(F)(F)F` [Compound 8, 7-(2-methyl-3-(trifluoromethyl)phenyl)-3-((4′-(trifluoromethyl)biphenyl-2-yl)rnethylthio)-[1,2,4]triazolo[4,3-a]pyrazin-8(7H)-one]: 905 nM; `Cc1c(-n2ccn3c(S(=O)(=O)Cc4ccccc4F)nnc3c2=O)cccc1C(F)(F)F` [Compound 120, 3-(2-fluorobenzylsulfonyl)-7-(2-methyl-3-(trifluoromethyl)phenyl)-[1,2,4]triazolo[4,3-a]pyrazin-8(7H)-one]: 11.8 nM. Take `Cc1c(Cl)cccc1-n1ccn2c(SCc3cc(Cl)ccc3Cl)nnc2c1=O` [Compound 72, 7-(3-chloro-2-methylphenyl)-3-(2,5-dichlorobenzylthio)-[1,2,4]triazolo[4,3-a]pyrazin-8(7H)-one]: the IC50 worked out at 3150 nM. `Cc1c(Cl)cccc1-n1ccn2c(SCc3cccc(I)c3)nnc2c1=O` [Compound 77, 7-(3-chloro-2-methylphenyl)-3-(3-iodobenzylthio)-[1,2,4]triazolo[4,3-a]pyrazin-8(7H)-one]: the IC50 amounted to 462 nM. For `[2H]c1c([2H])c([2H])c(CS(=O)(=O)c2nnc3c(=O)n(-c4cccc(Cl)c4C)ccn23)c([2H])c1[2H]` [Compound 142, deuterated-7-(3-chloro-2-methylphenyl)-3-[(phenyl-(d5)methyl)sulfonyl]-1,2,4-triazolo[4,3-a]pyrazin-8(7H)-one], the IC50 was determined as 39.5 nM. `Cc1c(Cl)cccc1-n1ccn2c(SCC(=O)OC(C)(C)C)nnc2c1=O` [Compound 107, tert-butyl 2-(7-(3-chloro-2-methylphenyl)-8-oxo-7,8-dihydro-[1,2,4]triazolo[4,3-a]pyrazin-3-ylthio)acetate]: the concentration for half-maximal inhibition (IC50) worked out at 1820 nM. Next, `Cc1cccc(CSc2nnc3c(=O)n(-c4cccc(Cl)c4C)ccn23)c1` [Compound 73, 7-(3-chloro-2-methylphenyl)-3-(3-methylbenzylthio)-[1,2,4]triazolo[4,3-a]pyrazin-8(7H)-one]: 439 nM; `Cc1c(Cl)cccc1-n1ccn2c(S(=O)(=O)Cc3cccc(Cl)c3)nnc2c1=O` [Compound 156, 7-(3-chloro-2-methylphenyl)-3-(3-chlorobenzylsulfonyl)-[1,2,4]triazolo[4,3-a]pyrazin-8(7H)-one]: 119 nM; `Cc1c(-n2ccn3c(SCc4cccs4)nnc3c2=O)cccc1C(F)(F)F` [Compound 15, 7-(2-methyl-3-(trifluoromethyl)phenyl)-3-(thiophen-2-ylmethylthio)-[1,2,4]triazolo[4,3-a]pyrazin-8(7H)-one]: 30.4 nM. Next, `Cc1c(-n2ccn3c(S(=O)(=O)Cc4ccsc4)nnc3c2=O)cccc1C(F)(F)F` [Compound 123, 7-(2-methyl-3-(trifluoromethyl)phenyl)-3-(thiophen-3-ylmethylsulfonyl)-[1,2,4]triazolo[4,3-a]pyrazin-8(7H)-one]: 12.4 nM; `Cc1c(Cl)cccc1-n1ccn2c(S(=O)(=O)Cc3ccccc3Br)nnc2c1=O` [Compound 128, 3-(2-bromobenzylsulfonyl)-7-(3-chloro-2-methylphenyl)-[1,2,4]triazolo[4,3-a]pyrazin-8(7H)-one]: 16.9 nM; `O=c1c2nnc(SCc3ccccc3)n2ccn1-c1cccc2ccccc12` [Compound 29, 3-(benzylthio)-7-(naphthalen-1-yl)-[1,2,4]-triazolo[4,3-a]pyrazin-8(7H)-one]: 3630 nM.

Regarding `Cc1c(Cl)cccc1-n1ccn2c(S(=O)(=O)Cc3cccc(F)c3Cl)nnc2c1=O` [Compound 130, 7-(3-chloro-2-methylphenyl)-3-(2-chloro-3-fluorobenzylsulfonyl)-[1,2,4]triazolo[4,3-a]pyrazin-8(7H)-one], the IC50 was found to be 17.3 nM.

On to `Cc1c(-n2ccn3c(SCc4ccsc4)nnc3c2=O)cccc1C(F)(F)F` [Compound 14, 7-(2-methyl-3-(trifluoromethyl)phenyl)-3-(thiophen-3-ylmethylthio)-[1,2,4]triazolo[4,3-a]pyrazin-8(7H)-one], for which the IC50 was determined as 38.1 nM. Next, `Cc1c(Cl)cccc1-n1ccn2c(SCc3ccccc3Cn3cncn3)nnc2c1=O` [Compound 38, 3-(2-((1H-1,2,4-triazol-1-yl)methyl)benzylthio)-7-(3-chloro-2-methylphenyl)-[1,2,4]triazolo[4,3-a]pyrazin-8(7H)-one]: 1440 nM. `Cc1c(-n2ccn3c(SCc4cccc5c4-c4ccccc4C5)nnc3c2=O)cccc1C(F)(F)F` [Compound 4, 3-((9H-fluoren-4-yl)methylthio)-7-(2-methyl-3-(trifluoromethyl)phenyl)-[1,2,4]triazolo[4,3-a]pyrazin-8(7H)-one]: the half-maximal inhibitory concentration (IC50) stood at 264 nM. For `O=c1c2nnc(SCc3ccccc3)n2ccn1-c1cccc(Cl)c1Cl` [Compound 95, 3-(benzylthio)-7-(2,3-dichlorophenyl)-[1,2,4]triazolo[4,3-a]pyrazin-8(7H)-one], the IC50 was 110 nM. As for `Cc1c(Cl)cccc1-n1ccn2c(N(Cc3ccccc3)CC3CC3)nnc2c1=O` [Compound 171, 3-(benzyl(cyclopropylmethyl)amino)-7-(3-chloro-2-methylphenyl)-[1,2,4]triazolo[4,3 - a]pyrazin-8(7H)-one], the half-inhibitory concentration (IC50) worked out at 229 nM.

In the case of `Cc1c(Cl)cccc1-n1ccn2c(SCc3ccccc3CS(=O)(=O)c3ccccc3)nnc2c1=O` [Compound 43, 7-(3-chloro-2-methylphenyl)-3-(2-(phenylsulfonylmethyl)benzylthio)-[1,2,4]triazolo[4,3-a]pyrazin-8(7H)-one], the IC50 was 233 nM. For `Cc1c(-n2ccn3c(S(=O)(=O)Cc4ccccc4-c4ccc(C(F)(F)F)cc4)nnc3c2=O)cccc1C(F)(F)F` [Compound 164, 7-(2-methyl-3-(trifluoromethyl)phenyl)-3-((4′-(trifluoromethyl)biphenyl-2-yl)methylsulfonyl)-[1,2,4]triazolo[4,3-a]pyrazin-8(7H)-one], the IC50 worked out at 629 nM. The same measure for `COc1ccccc1CSc1nnc2c(=O)n(-c3cccc(Cl)c3C)ccn12` [Compound 110, 7-(3-chloro-2-methylphenyl)-3-(2-methoxybenzylthio)-[1,2,4]triazolo[4,3-a]pyrazin-8(7H)-one]: 544 nM.

The values are drawn from patent US20130196986A1 (priority 2010, published 2013).
